Measurements taken from patent US7595334B2, “Broadspectrum 2-(substituted-amino)-benzoxazole sulfonamide HIV protease inhibitors” (Tibotec Pharmaceuticals Ltd., priority 2001, dated 2009).

Experiments:
mock-infected MT4 cells = test: in vitro
Procedure: (§1) HIV- or mock-infected MT4 cells were incubated for five days in the presence of various concentrations of the inhibitor. […] Cell viability is measured by measuring the concentration of MTT, a yellow, water soluble tetrazolium dye that is converted to a purple, water insoluble formazan in the mitochondria of living cells only. Upon solubilization of the resulting formazan crystals with isopropanol, the absorbance of the solution is monitored at 540 nm. The values correlate directly to the number of living cells remaining in the culture at the completion of the five day incubation. The inhibitory activity of the compound was monitored on the virus-infected cells and was expressed as EC50 and EC90. These values represent the amount of the compound required to protect 50% and 90%, respectively, of the cells from the cytopathogenic effect of the virus. The toxicity of the compound was measured on the mock-infected cells and was expressed as CC50, which represents the concentration of compound required to inhibit the growth of the cells by 50%. The selectivity index (SI) (ratio CC50/EC50) is an indication of the selectivity of the anti-HIV activity of the inhibitor. Wherever results are reported as e.g. pEC50 or pCC50 values, the result is expressed as the negative logarithm of the result expressed as EC50 or CC50 respectively.
(§2) As a measure of the broad spectrum activity of the present compounds, the fold resistance (FR), defined as FR=EC50(mutant strain)/EC50(HIV-1 strain LAI), was determined.

[1] = system: HIV strain F (clinically isolated, protease mutations); format: cell-based; settings: FR=EC50(mutant strain F)/EC50(HIV-1 strain LAI)
Procedure: as §1, §2

[2] = system: HIV strain D (clinically isolated, protease mutations); format: cell-based; settings: FR=EC50(mutant strain D)/EC50(HIV-1 strain LAI)
Procedure: as §1, §2

[3] = system: HIV strain B (clinically isolated, protease mutations); format: cell-based; settings: FR=EC50(mutant strain B)/EC50(HIV-1 strain LAI)
Procedure: as §1, §2

[4] = system: HIV strain A (clinically isolated, protease mutations); format: cell-based; settings: FR=EC50(mutant strain A)/EC50(HIV-1 strain LAI)
Procedure: as §1, §2

[5] = system: HIV strain C (clinically isolated, protease mutations); format: cell-based; settings: FR=EC50(mutant strain C)/EC50(HIV-1 strain LAI)
Procedure: as §1, §2

[6] = system: HIV strain E (clinically isolated, protease mutations); format: cell-based; settings: FR=EC50(mutant strain E)/EC50(HIV-1 strain LAI)
Procedure: as §1, §2

SMILES | Tox (pCC50) (mock-infected MT4 cells) | F (FR) fold resistance [1] | D (FR) fold resistance [2] | B (FR) fold resistance [3] | A (FR) fold resistance [4] | C (FR) fold resistance [5] | E (FR) fold resistance [6]
CC(C)CN(C[C@@H](O)[C@H](Cc1ccccc1)NC(=O)O[C@H]1CO[C@H]2OCC[C@H]21)S(=O)(=O)c1ccc2nc(N(C)CCN3CCCC3)oc2c1 [Compound 8] | <4 | 58 | 5.8 | 5.8 | 30 | 1.7 | 
CC(C)CN(C[C@@H](O)[C@H](Cc1ccccc1)NC(=O)OCc1cncs1)S(=O)(=O)c1ccc2nc(NC(=O)c3ccccn3)oc2c1 [Compound 16] | 4.25 | 17 | 3.3 | 0.72 | 3.5 | 0.69 | 1.1
CC(=O)Nc1nc2ccc(S(=O)(=O)N(CC(C)C)C[C@@H](O)[C@H](Cc3ccccc3)NC(=O)OCc3cncs3)cc2o1 [Compound 11] | <4 | 74 | 10 | 2.1 | 42 | 2.5 | 4.8
CC(C)CN(C[C@@H](O)[C@H](Cc1ccccc1)NC(=O)OCc1cncs1)S(=O)(=O)c1ccc2nc(N(C)C(=O)c3cccnc3)oc2c1 [Compound 32] | <4 | 42 | 8.1 | 1.7 | 8.3 | 1.1 | 
CC(C)CN(C[C@@H](O)[C@H](Cc1ccccc1)NC(=O)OCc1cncs1)S(=O)(=O)c1ccc2nc(NC(=O)CN3CCN(C)CC3)oc2c1 [Compound 25] | 4.31 | 18 | 3.9 | 1.3 | 3.9 | 3.0 | 3.9
CC(C)CN(C[C@@H](O)[C@H](Cc1ccccc1)NC(=O)OCc1cncs1)S(=O)(=O)c1ccc2nc(NC(=O)C3CCCN3C)oc2c1 (stereo partly shown) [Compound 34] | 4.25 | 25 | 5.8 | 1.4 | 7.2 | 1.7 | 2.3
CC(C)CN(C[C@@H](O)[C@H](Cc1ccccc1)NC(=O)OCc1cncs1)S(=O)(=O)c1ccc2nc(NC(=O)CN(C)C)oc2c1 [Compound 19] | <4 | 17 | 2.2 | 0.81 | 3.0 | 0.91 | 
CC(C)CN(C[C@@H](O)[C@H](Cc1ccccc1)NC(=O)OCc1cncs1)S(=O)(=O)c1ccc2nc(N(C)C(=O)C3CCN(C)CC3)oc2c1 [Compound 28] | <4 | 23 | 2.9 | 0.89 | 4.4 | 0.51 | 1.9
CC(C)CN(C[C@@H](O)[C@H](Cc1ccccc1)NC(=O)OCc1cncs1)S(=O)(=O)c1ccc2nc(NC(=O)C3CCC(=O)N3)oc2c1 (stereo partly shown) [Compound 13] | <4 | 5.2 | 0.91 | 0.75 | 2.3 | 0.64 | 0.91
CC(C)CN(C[C@@H](O)[C@H](Cc1ccccc1)NC(=O)OCc1cncs1)S(=O)(=O)c1ccc2nc(N(C)C(=O)c3ccccn3)oc2c1 [Compound 26] | 4.14 | 59 | 15 | 2.45 | 9.3 | 3.4 | 11
CC(C)CN(C[C@@H](O)[C@H](Cc1ccccc1)NC(=O)OCc1cncs1)S(=O)(=O)c1ccc2nc(NC(=O)c3ccco3)oc2c1 [Compound 14] | 5.03 | 19 | 3.7 | 3.8 | 5.2 | 3.1 | 3.1
CC(C)CN(C[C@@H](O)[C@H](Cc1ccccc1)NC(=O)OCc1cncs1)S(=O)(=O)c1ccc2nc(N(C)C(=O)c3ccnc(Cl)c3)oc2c1 [Compound 29] | <4 | 39 | 4.9 | 1.4 | 8.1 | 0.79 | 0.87
CC(C)CN(C[C@@H](O)[C@H](Cc1ccccc1)NC(=O)OCc1cncs1)S(=O)(=O)c1ccc2nc(NC(=O)[C@H]3CCCN3C)oc2c1 [Compound 35] | 4.26 | 48 | 3.5 | 2.3 | 13 | 1.1 | 
CC(C)CN(C[C@@H](O)[C@H](Cc1ccccc1)NC(=O)OCc1cncs1)S(=O)(=O)c1ccc2nc(N(C)C(=O)C3CCC(=O)N3)oc2c1 (stereo partly shown) [Compound 30] | <4 |  |  |  |  |  | 
COC(=O)Nc1nc2ccc(S(=O)(=O)N(CC(C)C)C[C@@H](O)[C@H](Cc3ccccc3)NC(=O)OCc3cncs3)cc2o1 [Compound 9] | <4 | 14.5 | 2.7 | 1.2 | 3.5 | 1.2 | 3.6
CC(C)CN(C[C@@H](O)[C@H](Cc1ccccc1)NC(=O)OCc1cncs1)S(=O)(=O)c1ccc2nc(NC(=O)c3cccnc3)oc2c1 [Compound 18] | 4.24 | 13 | 3.0 | 0.85 | 2.6 | 1.5 | 2.6
CCOC(=O)Nc1nc2ccc(S(=O)(=O)N(CC(C)C)C[C@@H](O)[C@H](Cc3ccccc3)NC(=O)OCc3cncs3)cc2o1 [Compound 12] | <4 | 15 | 4.8 | 1.4 | 8.5 | 2.5 | 2.5
CC(C)CN(C[C@@H](O)[C@H](Cc1ccccc1)NC(=O)OCc1cncs1)S(=O)(=O)c1ccc2nc(N(C)C(=O)c3ccncc3)oc2c1 [Compound 31] | <4 | 33 | 7.6 | 1.3 | 9.5 | 1.25 | 
